In patent US20050267020A1, “Polypeptides derived from inducible hsp70 and pharmaceutical compositions containing the same” (priority 2001, published 2005):

Assays:
[1] = molecular target: T1, HLA-A*0201/peptide complex (Homo sapiens, UniProt P04439, D140Y/D185E/D98H/E176V/E277Q/G131W/G231S/I119V/I121R/I166T/I218V/L300P/L318F/N151K/N90K/P208A/P217A/Q86G/Q94H/R138H/R169H/T345S); assay: Assessment of peptide/HLA class I complex stability (DC50); assay type: binding; details: half life (DC50) of the HLA-A*0201/peptide complex
T1 construct: Tap−/− cells expressing the studied HLA-class I molecule; endogenous in cells; host or cells: T2 cells (Tap-/-, HLA-A*0201)
Description: Assessment of Peptide/HLA class I Complex Stability. Tap−/− cells (10^6/mL) were incubated overnight with 100 μM of each peptide in serum-free RPMI 1640 medium supplemented with 100 ng/mL of […] at 37° C. Cells were then washed four times to remove free peptide, incubated with Brefeldin A (10 μg/mL) for 1 hour to block cell surface expression of newly synthesized HLA molecules, washed and incubated at 37° C. for 0, 2, 4 or 6 hours. Subsequently, cells were stained with the HLA specific mAb followed by FITC conjugated goat anti mouse Ig mAb. For each time point, peptide induced HLA expression was calculated as: Mean fluorescence of peptide preincubated cells—Mean fluorescence of cells treated in similar conditions in the absence of peptide. DC50 (dissociation complex; DC) was defined as the time required for the loss of 50% of the HLA-A*0201/peptide complexes stabilized at t=0.
The affinity of each peptide was assayed experimentally by determination of the Relative Affinity: the necessary peptide dose to stabilise a reference quantity of HLA-A*0201 molecules at the surface of T2 cells; and the stability of each peptide was assayed by determination of the half-life of the peptide/HLA-A*0201 molecule complex (DC50: dissociation complex 50).

[2] = tested on: MCF-7 and SAOS tumor cell lines; assay: Recognition by murine CTL of epitopes at the surface of human tumor cells, TNF-α secretion assay; assay type: cell-based; details: HLA-A*0201+ Hsp70+ tumor cells
Description: CTL recognition of tumoral cells is expressed as CTL secretion of TNF-α dosed in supernatant (X Axis, TNF-α ranges from 0 to 1000 pg/ml) after contact with the cells. Upper to lower bars represent the different cells and reagents in contact with CTL, respectively: 2 negative controls (M113, M44), SAOS, MCF-7, MCF-7 blocked with anti-class I (w6/32) antibody before mixed culture, and MCF-7 blocked with an irrelevant antibody before mixed culture.
TNF-α Secretion Assay. Transfected COS cells on day 4 or 10^5 target tumor cells were plated in 50 μL RPMI 10% FCS and when necessary incubated with 10 μM peptide for 1 hour. In blocking experiments, anti-HLA class I antibody w6/32 or an irrelevant antibody were incubated with target cells for 1 h30. 5×10^4 T cells were then added in 50 μL RPMI 10% FCS and incubated for 6 hours. Each condition was tested in quadruplicates. 50 μL of the supernatant was collected. Standard dilutions were prepared in 50 μL with final doses of TNF-α (kindly provided by I. Apfler, Bender Wien, Austria) ranging from 10^4 to 0.08 pg/mL. On both the supernatants and the standards were added 50 μL of 3×10^4 TNF-α sensitive WEHI-164c13 cells. They were incubated for 16 hours at 37° C. (23). Inhibition of cell proliferation was evaluated by the MTT colorimetric method. Briefly, 50 μL of MTT at 2.5 mg/mL (Sigma-Aldrich) was added and incubated for 4 hours at 37° C. Cells were then lyzed with 100 μL of a pH4.7 33% N,N-dimethyl formamide (Sigma-Aldrich) 20% SDS solution in water. Two hours after cells lysis, OD was measured at 550 nm on a Dynatech MR5000 spectrophotometer. TNF-α quantitation was calculated by linear interpolation with the standard dilutions.
We studied whether the over-expression of Hsp70 described in certain tumor cell lines was high enough to enable these epitopes to be presented at the surface of tumor cells. We addressed this question with our already available high-avidity murine CTLs, hypothesizing that such a high CTL avidity enables the recognition of the highest-Hsp70 expressing human tumor cells. […]

[3] = tested on: HHD mice; assay: Generation of CTL in HLA-A*0201 transgenic HHD mice (immunogenicity); assay type: in vivo, mouse
Description: Generation of CTL in HLA-transgenic mice. HLA-transgenic mice were injected subcutaneously at the base of the tail with 100 μg of peptide emulsified in incomplete Freund's adjuvant (IFA) in the presence of 140 μg of the I-A^b restricted HBVcore-derived T-helper epitope (128-140; sequence TPPAYRPPNAPIL). After 11 days, spleen cells (5×10^7 cells in 10 mL) were stimulated in vitro with peptide (10 μM). On day 6 of culture, the bulk responder populations were tested for specific cytotoxicity. Upon response, the CTL line was then weekly re-stimulated in vitro with 20×10^6 35Gy irradiated spleen cells in the presence of 1 to 0.1 μM peptide and 50 U/mL IL-2 (Proleukin, Chiron Corp.). Cytotoxicity was assayed 6 days after the last stimulation and TNF-α secretion 11-13 days after, with the addition of 50 U/mL IL-2 on day 7. HHD mice transgenic for HLA-A*0201 were used. B7B7 Kd mice and mice transgenic for HLA-A*0301 are used for the study of the HLA-B*0701 and HLA-A*0301 restricted peptides respectively.

Sequence | Stability (hrs) [1] [h hrs] | presentation of the epitope at the surface of Hsp70 over-expressing human tumor cells [2] | induction of specific cytotoxic T cell immune response in HHD mice [3]
LLLLDVAPL [HSP 391] | >6 | demonstrated | capable of generating a specific cytotoxic T cell immune response
LMGDKSENV [HSP 380] | 4 | demonstrated | capable of generating a specific cytotoxic T cell immune response
YLGYPVTNAV [HSP 134(10)] | – | – | capable of generating a specific cytotoxic T cell immune response
